Measurements taken from patent US12257256B2, “Compositions and methods for inhibiting type 1 collagen production” (Florida State University Research Foundation, Inc., priority 2020, dated 2025).

What was measured:
LARP6/5′SL RNA complex = target: T1, LARP6/5′SL RNA complex (Homo sapiens, UniProt Q9BRS8); assay: Gel mobility shift: purified/recombinant LARP6 binding to 5′ stem-loop RNA in vitro; details: recombinant LARP6, electrophoretic mobility shift assay, FIG. 12
T1 sequence (Q9BRS8 1-491): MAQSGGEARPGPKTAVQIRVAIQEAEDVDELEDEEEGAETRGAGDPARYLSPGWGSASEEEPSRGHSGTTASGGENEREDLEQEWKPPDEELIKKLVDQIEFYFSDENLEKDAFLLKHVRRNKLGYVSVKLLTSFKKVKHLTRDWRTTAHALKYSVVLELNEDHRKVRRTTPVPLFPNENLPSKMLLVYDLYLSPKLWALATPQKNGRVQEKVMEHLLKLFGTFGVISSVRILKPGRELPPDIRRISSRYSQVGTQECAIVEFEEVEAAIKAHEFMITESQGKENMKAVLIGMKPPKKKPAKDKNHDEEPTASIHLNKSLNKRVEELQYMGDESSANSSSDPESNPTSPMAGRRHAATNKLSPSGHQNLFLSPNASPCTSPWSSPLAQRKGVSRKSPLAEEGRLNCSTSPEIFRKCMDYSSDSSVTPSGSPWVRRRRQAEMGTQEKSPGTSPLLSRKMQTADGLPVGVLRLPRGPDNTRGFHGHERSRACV
Description: Next, the inhibition of LARP6 binding was tested by gel mobility shift experiments in which binding of purified LARP6 to 5′SL RNA was resolved as protein/RNA complex in gel electrophoresis.
To assess the efficacy of CID 71314610 in inhibiting LARP6 binding to its target sequence, the 5′ stem-loop of type I collagen mRNAs, recombinant LARP6 protein was added to 5′ stem-loop RNA in vitro and CID 71314610 was added at nano-M concentrations to the reaction. The formation of LARP6/RNA complex was analyzed by electrophoretic mobility shift assay.

[1] = test system: type I collagen secretion by human lung fibroblasts; assay: Type I collagen secretion by human lung fibroblasts (western blot of medium); format: cell-based
Description: Based on the ability of the cefixime preparation 1 component to inhibit LARP6/5′SL interaction, cefixime preparation 2 was tested to inhibit type 1 collagen production by human lung fibroblasts. The cells were treated with cefixime preparation 2 in a range of concentrations for 18 hours. The cellular medium was changed and the accumulation of type I collagen into the fresh medium was measured after 3 hours. This provided an estimate of the rate by which the cells can secrete type I collagen. […] At 50 μM, secretion of type I collagen was reduced by about 50%. At 100 μM it was reduced by about 80%. […] This provided evidence that a component of commercial cefixime preparations can act as antifibrotic drugs. Human lung fibroblasts are responsible for lung fibrosis. These cells were cultured in vitro and CID 71314610 was added to the cellular medium at 0.5-50 μM. After overnight incubation the medium was changed and secretion of type I collagen into the fresh medium was analyzed by western blot. The rate of collagen secretion into the medium is a measure of the profibrotic activity of cells. Type I collagen is composed of two polypeptides, α1(I) and α2(I), so both were analyzed. […] In three independent experiments the expression of α1(I) and α2(I) polypeptides was normalized to the expression of fibronectin and plotted as function of CID 71314610 concentration (FIG. 13, bottom panel).

[2] = test system: fibronectin secretion by human lung fibroblasts; assay: Fibronectin secretion by human lung fibroblasts (western blot, specificity control); format: cell-based; details: same treatment as collagen read-out
Description: At 50 μM, secretion of type I collagen was reduced by about 50%. At 100 μM it was reduced by about 80%. […] This provided evidence that a component of commercial cefixime preparations can act as antifibrotic drugs.
Human lung fibroblasts are responsible for lung fibrosis. These cells were cultured in vitro and CID 71314610 was added to the cellular medium at 0.5-50 μM. After overnight incubation the medium was changed and secretion of type I collagen into the fresh medium was analyzed by western blot. The rate of collagen secretion into the medium is a measure of the profibrotic activity of cells. Type I collagen is composed of two polypeptides, α1(I) and α2(I), so both were analyzed. […] In three independent experiments the expression of α1(I) and α2(I) polypeptides was normalized to the expression of fibronectin and plotted as function of CID 71314610 concentration (FIG. 13, bottom panel).

purified LARP6 protein = target: T2, purified LARP6 protein (Homo sapiens, UniProt Q9BRS8); assay: Affinity binding of commercial cefixime preparation to purified LARP6, elution and mass spectrometry; details: FIG. 11
T2 sequence (Q9BRS8 1-491): T1 sequence (Q9BRS8 1-491)
Excerpt: The component with antifibrotic activity in the commercial cefixime preparations was identified by affinity binding of the commercial cefixime preparations to the purified LARP6 protein, followed by elution of the bound molecular species and their identification by mass spectrometry. […] This component has two diastereomer isoforms which were present in miniscule amounts in the commercial cefixime preparations, but both were sequestered by LARP6 protein.

- dissociation of LARP6/RNA complexes (LARP6/5′SL RNA complex; 50 nM): 50%
- dissociation of LARP6/RNA complexes (LARP6/5′SL RNA complex; 100 nM): ~90%
- fraction of input present in cefixime preparation bound by LARP6 (purified LARP6 protein; one diastereomer): 50%
- fraction of input present in cefixime preparation bound by LARP6 (purified LARP6 protein; the other diastereomer): 100%
SMILES: CC1OC(=O)C2=C1CS[C@H](CNC(=O)/C(=N\OCC(=O)O)c1csc(N)n1)N2 (mixture of isomers) [CID 71314610, 2-[[[(Z)-1-(2-Aminothiazol-4-yl)-2-[[[(2R,5RS)-5-methyl-7-oxo-1,2,5,7-tetrahydro-4H-furo[3,4-d][1,3]thiazin-2-yl]methyl]amino]-2-oxoethylidene]amino]oxy]acetic acid]
- secretion of α1(I) and α2(I) collagen polypeptides ([1]; 0.5-50 μM, overnight incubation, FIG. 13 upper panel): inhibited by CID 71314610 in the concentration dependent manner
- concentration with highly statistically significant inhibition of both polypeptides comprising type I collagen ([1]; three independent experiments, normalized to fibronectin, FIG. 13 bottom panel): 5 µM
- secretion of fibronectin [2]: not affected
